Laboratory results: US9572831B2, “Composition and method for sulfated non-anticoagulant low molecular weight heparins in cancer and tumor metastasis” (priority 2013, dated 2017)

Tests used:
MPanc96-luc cells = test: CAM cancer implant model, MPanc96; type: in vivo, chick embryo; conditions: 1.0 ug/CAM
Method: The CAM cancer implant model was used in conjunction with the present invention to study the effect of heparin derivatives (S-NACH versus tinzaparin) along with gemcitabine at 1.0 μg/CAM on tumor angiogenesis and tumor growth. MPanc96-luc cells in exponential growth phase were harvested as described above. One×10^6 cells in 30 μl of medium were mixed with an equal volume of Matrigel and implanted in the chick Chorioallantoic membrane (CAM) model of 7-day old chick eggs. The effect of these treatments was determined after 8 days of implantation. Results are presented as a mean tumor weight (g) per treatment group and tumor hemoglobin (mg/dl)±SEM, n=10 per group. For the Matrigel portions of the models, tumor angiogenesis is evaluated with tumor weight analysis and Drabkin's Assay for hemoglobin concentration (angiogenesis index). PBS was used as a negative control while breast cancer cells were used as a positive control and to initiate tumorigenesis. The tumor cells were MCF-7/DXR (human breast adenocarcinoma), and 1-2 million cells per CAM were used. […] By re-weighing the tubes with the tumor inside, the weight of the tumor itself could be recorded. […] Specimens were centrifuged, and the hemoglobin content was measured using Drabkin's reagent (Sigma, St Louis, Mo.), run in duplicate using the supernatant. […]

[1] = system: pancreatic (Panc-1) tumor; test: CAM tumor implant model, Panc-1; type: in vivo; conditions: 10 ug/CAM
Mpanc96-luc cancer cells = test: Liver metastasis and recurrence after excision of pancreatic cancer; type: in vivo; conditions: experiment and dose not stated at the place
Source text: Different groups of mice received either saline (control), LMWH, SNACH or S-SNACH, followed by injection of luciferase transfected pancreatic cancer cells into the mouse spleen. The treatment continued daily for two weeks. IVIS imaging was done once a week to measure the metastatic load to various organs. The tumor burden measurements were based on the bioluminescence signal intensity of the pancreatic cancer cells. The second experiment was intended to study the effect of the compounds (LMWH, SNACH, and S-SNACH) on metastasis after tumor excision surgery. Pancreatic Mpanc96 cells were injected into the tail of the pancreas and one week later animals were randomized into different groups. One group received saline and another group received LMWH, SNACH, and S-SNACH at 30 minutes before resection of the pancreatic tumor, followed by daily treatment for 3 weeks. Tumor metastasis was evaluated by IVIS imagining. A bleeding time experiment was done to evaluate the relative effect on bleeding time. […] Tumor luminescent signal intensity, weight, and histopathology were assessed at the termination of the study.
Mice were randomly distributed into control and treatment groups, averaging 10 mice in each group. […] The spread of cancer cells was monitored using IVIS imaging once per week, and at the end of the 3 week treatment period the mice were euthanized.

tinzaparin
tumor growth or tumor angiogenesis (MPanc96-luc cells): maximally inhibited | tumor growth or tumor angiogenesis [1]: inhibited | tumor recurrence after surgical excision (Mpanc96-luc cancer cells): not
